Results from ChEMBL document CHEMBL3734690, “Design, Synthesis, and Biological Evaluation of Indole Biphenylcarboxylic Acids as PPARγ Antagonists” (ACS Med Chem Lett, 2015).

What was measured:
[1] = in vivo; conditions: mouse, plasma, po, 20 mg/kg
Description: Plasma concentration in mouse at 20 mg/kg, po after 6 hrs

[2] = in vivo; conditions: mouse, plasma, po, 20 mg/kg; remark: listed apart in the source
Description: Plasma concentration in mouse at 20 mg/kg, po after 2 hrs

| concentration at 6 h [1] | concentration at 2 h [2] | Compound |
| --- | --- | --- |
| 30 nM | 400 nM | Cc1c(C)n(Cc2ccc(-c3ccccc3C(=O)NO)cc2)c2ccc(C(=O)N[C@@H](C)c3cccc(C(C)C)c3)cc12 |
| 100 nM | 2500 nM | Cc1c(C)n(Cc2ccc(-c3ccccc3C(N)=O)cc2)c2ccc(C(=O)N[C@@H](C)c3cccc(C(C)C)c3)cc12 |
| 10 nM | 200 nM | Cc1c(C)n(Cc2ccc(-c3ccccc3-c3n[nH]c(=O)o3)cc2)c2ccc(C(=O)N[C@@H](C)c3cccc(C(C)C)c3)cc12 |
| 1900 nM | 5600 nM | Cc1c(C)n(Cc2ccc(-c3ccccc3C(=O)O)cc2)c2ccc(C(=O)N[C@@H](C)c3ccc(C(C)(C)C)cc3)cc12 |
| 2400 nM | 19000 nM | Cc1c(C)n(Cc2ccc(-c3ccccc3C(=O)O)cc2)c2ccc(C(=O)N[C@@H](C)c3cccc(C4CC4)c3)cc12 |
